How the values were obtained:
[1] = in vivo
Experimental: Particle size reduction for TTI-101 by micronization and nano-milling provided poor bioavailability (e.g., 10-20 times lower bioavailability than a solution of TTI-101). Hot melt extrusion (HME) was used and the resulting dispersions were evaluated using DSC miscibility, DSC extrudability and rheology studies. Polymer systems tried include: Soluplus; Soluplus+Kolliphor RH40; Soluplus+Vitamin E TPGS; and PVPVA64+Kolliphor RH40.

Solubility of TTI-101 = type: physicochemical
Text: The compound of Formula (I) (also referred to as TTI-101) is highly insoluble (“brick dust”). […] Furthermore, the compound of Formula (I) has a crystalline structure with high crystal-lattice energy, contributing to rapid precipitation or crystallization of the compound from solution. Its low solubility and high crystallinity have contributed to various difficulties in preparing formulations that are suitable for administration in human subjects. Current formulations are liquid formulations delivered via capsules. For example, a formulation of the compound of formula (I) dissolved in 60:40 Labrasol®/PEG400 and encapsulated into a hard gelatin capsule (unit dose: 36 mg), while showing encouraging results in 3 dose cohorts, was prevented from advancing to a fourth patient cohort (25.6 mg/kg/day as 12.8 mg/kg twice daily (BID) doses) because of an unacceptably high pill burden. For example, a 70 kg subject in Cohort 4 would require […] per day split into BID doses. […]

bioavailability lower than a solution of TTI-101 [1]: 10-20 times | solubility in aqueous solutions (Solubility of TTI-101): insoluble | solubility in most solvents (Solubility of TTI-101): relatively low solubility
Structure (SMILES): COc1ccc(S(=O)(=O)Nc2cc(-c3c(O)ccc4ccccc34)c(O)c3ccccc23)cc1 [TTI-101]

From patent US20250170065A1, “THERAPEUTIC COMPOUNDS, FORMULATIONS, AND USE THEREOF” (priority 2022, published 2025)
